Measurements taken from PubChem BioAssay (NCI).
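Growth conditions: 96-well plates. Treatment: test compound, 48 hours, 5 concentrations. Analysis: linear interpolation between bracketing concentrations; unreached endpoints set to highest concentration. GI50 marks 50% less growth. TGI marks complete inhibition of growth.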

Legend:
Assay in all cases: NCI-60 cell line screen, 48 h
[1] = system: HCT-116 colon
[2] = system: HOP-18 NSCLC
[3] = system: IGROV1 ovarian
[4] = system: LXFL 529 NSCLC
[5] = system: MALME-3M melanoma
[6] = system: NCI-H23 lung
[7] = system: NCI-H522 lung
[8] = system: SNB-78 CNS
[9] = system: DMS 273 small cell lung

Row | Structure (SMILES) | TGI [1] [µM] | TGI [2] [µM] | TGI [3] [µM] | TGI [4] [µM] | TGI [5] [µM] | TGI [6] [µM] | TGI [7] [µM] | TGI [8] [µM] | TGI [9] [µM] | GI50 [9] [µM] | GI50 [1] [µM] | GI50 [3] [µM] | GI50 [5] [µM] | GI50 [8] [µM]
1 | CCOC(=O)/C=C/c1ccccn1 | > 100 | > 100 | > 100 | > 100 | > 100 | > 100 | > 100 | > 100 | – | – | – | – | – | –
2 | O=C(CSc1nnc(-c2ccc(N=Cc3ccc(Cl)cc3)cc2)o1)Nc1cccc(Cl)c1 | > 100 | > 100 | – | > 100 | > 100 | > 100 | > 100 | > 100 | > 100 | – | – | – | – | –
3 | CC(=O)NC(CCCCNC(=O)N(C)N=O)C(=O)NCc1ccccc1 (stereo not given) | > 100 | – | > 100 | > 100 | > 100 | > 100 | > 100 | > 100 | > 100 | – | – | – | – | –
4 | CN(C)/C=N/c1nc2ncn(CCOC(=O)c3ccccc3)c2c(=O)[nH]1 | > 100 | > 100 | > 100 | > 100 | > 100 | – | > 100 | > 100 | > 100 | – | – | – | – | –
5 | S=C(Nc1ccccc1)N1N=C2c3ccccc3CC[C@H]2[C@@H]1c1ccccc1 | > 100 | > 100 | > 100 | > 100 | > 100 | > 100 | 4.12 | > 100 | – | – | – | – | – | –
6 | COc1cc([C@@H]2c3cc4c(c(O)c3C[C@H]3COC(=O)[C@@H]32)OCO4)cc(OC)c1O | > 20 | – | > 128 | 0.00859 | – | 0.637 | – | > 200 | – | 0.00198 | 0.0039 | 0.00276 | 0.00116 | 0.00309
7 | CN1OC2OC(=O)OC2[C@H]1[C@H]1O[C@H](c2ccccc2)OC1(C)c1cc(OC(=O)c2ccccc2)ccc1OC(=O)c1ccccc1 (stereo not given in full) | > 50 | – | > 50 | > 50 | > 50 | > 50 | > 50 | > 50 | > 50 | – | – | – | – | –
8 | CSc1ccc2c(cc1=O)[C@@H](NC(=O)c1ccc(F)cc1)CCc1cc(O)c(O)c(O)c1-2 | > 100 | > 100 | > 100 | > 100 | > 100 | > 100 | > 100 | > 100 | > 100 | – | – | – | – | –
9 | COc1ccc(C#CCC(OC2OC(CO)C(O)C(O)C2O)C(O)c2ccc(OC)c(OC)c2)cc1OC (stereo not given) | > 100 | > 100 | > 100 | > 100 | > 100 | > 100 | > 100 | > 100 | > 100 | – | – | – | – | –
10 | COc1ccc([C@@H]2CC(=O)NCCCCNCCCN2)cc1 | > 100 | > 100 | > 100 | > 100 | > 100 | > 100 | > 100 | > 100 | > 100 | – | – | – | – | –
